The subject of series [1] is C3H kidney allografts in presensitized BALB/c recipients. The text has this: Animals Male adult C3H (H-2^k) mice and BALB/c (H-2^d mice (Jackson Labs, Bar Harbor, Me.) weighing 25-30 g were chosen as donors and recipients, respectively. Animals were housed under conventional conditions at the Animal Care Facility, The University of Western Ontario, and were cared for in accordance with the guidelines established by the Canadian Council on Animal Care.
Skin Presensitization Full-thickness skin grafts taken from C3H donors were cut into 1×1 cm^2 pieces and transplanted onto the backs of BALB/c recipient mice. Rejection was defined as complete necrosis of the skin grafts.
The donor ureter was also sutured to the recipient bladder using 10-0 sutures. The native kidneys were removed immediately after grafting. Graft rejection leading to host death was used as the endpoint of rejection for kidney transplants.
Measurement of Serum Creatinine Serum samples were obtained at study endpoint (time of rejection or POD100) after kidney transplantation. Serum creatinine levels were quantitated in 10 μL samples using the Sigma Diagnostics (Sigma, St. Louis, Mo.) procedure, which measures creatinine by a kinetic modification of the Jaffe reaction (Junge et al., 2004). Graft Histology At necropsy, tissue samples were processed for hematoxylin and eosin (H&E) staining (Wang et al, JI 2003) and evaluated for vasculitis, thrombosis, hemorrhage and lymphocyte infiltration; changes were scored as: 0, none; 1, minimal; 2, mild; 3, moderate or 4, marked compared to normal tissues.

Series [2] shares this test system. Briefly: Immunoperoxidase staining of kidney allografts in presensitized mouse recipients at necropsy. It is filed as in vivo. Also on record: key: 0, negative; 1+, equivocal; 2+, weak; 3+, moderate; 4+, intense. The settings on record: kidney allograft, at the time of rejection. The text has this:
Immunohistochemistry Tissue samples embedded in Optimum Cutting Temperature (O.C.T.) gel (Skura Finetek, Torrance, Calif.) were sectioned and stained for CD4^+, CD8^+ and Mac-1^+ infiltrating cells and for IgG, IgM, C3 and C5 deposition using an Elite Vectastain ABC kit (Vector Laboratories Inc., Burlingame, Calif.). Primary biotinylated antibodies included anti-CD4 (YTS 191.1.2, Cedarlane Laboratories Ltd., Hornby, Ontario, Canada), anti-CD8 (53-6.7, BD Biosciences, Franklin Lakes, N.J.) and anti-Mac-1 (Cedarlane). Intragraft IgG and IgM deposition was detected using biotinylated goat anti-mouse-IgG and goat anti-mouse-IgM (Cedarlane). Complement deposition was detected following serial incubation with goat anti-mouse C3 or anti-mouse C5 polyclonal Abs (Quidel, San Diego, Calif.), biotinylated rabbit anti-goat IgG (Vector Laboratories), and HRP-conjugated-streptavidin (Zymed Laboratories, South San Francisco, Calif.). Negative controls were performed by omitting the primary antibodies. The immunostaining was scored in five high-power fields of each section using tissue samples from five animals per experimental group. Immunoreactivity was graded from 0 to 4+ according to staining intensity as follows: 0, negative; 1+, equivocal; 2+, weak; 3+, moderate; and 4+, very intensive staining.

Series [3] relates to terminal complement activity. Description: Complement hemolytic assay of recipient mouse sera (kidney model). Format: in vivo. The settings on record: POD7, presensitized kidney recipients, FIG. 12. As to the method:
Complement Hemolytic Assay Terminal complement activity in recipient mouse sera was determined by standard methods to assess the ability of sera to lyse chicken erythrocytes presensitized with erythrocyte-specific antibodies as previously described (Wang et al., 1999).

Series [4] has as its system circulating anti-donor IgG and IgM antibodies. Description: Flow cytometry of circulating anti-donor antibodies (kidney model). It is filed as in vivo, mouse. How it is done:
Flow Cytometry Circulating anti-donor specific IgG and IgM antibodies were evaluated in recipient sera by flow cytometry. Briefly, C3H mouse splenocytes were isolated and incubated at 37° C. for 30 minutes with serum samples obtained at the indicated timepoints from mice from the various treatment groups. To stain for total IgG or specific antibody subclasses, the washed cells were incubated with FITC-conjugated goat anti-mouse antibodies specific for the Fc portion of mouse IgG, mouse IgG1, mouse IgG2a, mouse IgG2b or mouse IgG3 (all from (CALTAG Laboratories, Burlingame, Calif.) or with a phycoerythrin-conjugated goat antibody specific for mouse IgM (Jackson ImmunoResearch Laboratories, West Grove, Pa.) for 1 hour at 4° C., washed and analyzed on a FACScan flow cytometer (Becton Dickinson, Mountain View, Calif.) (Collins et al., 1999; Pratt et al., 1996). The results are expressed as mean channel fluorescence intensity as a measure of the level of each anti-donor isotype in the samples.
For orientation: A flow cytometer gives signals particle by particle.

Series [5] relates to Bcl-2 and Bcl-xl proteins. Briefly: Western blot of kidney grafts. It is filed as in vivo, mouse. The settings on record: POD100 (accommodated) or rejected grafts, FIG. 14. The text has this:
Western Blot Analysis Frozen kidney samples were sonicated, separated by electrophoresis and transferred to polyvinylidene difluoride (PVDF; Invitrogen) membranes. Intragraft expression of Bcl-2 and Bcl-XS/L was detected using the polyclonal sera N-19 and M-125, respectively (Santa Cruz Biotechnology, Inc.). Polyclonal anti-calsequestrin (Calbiochem) served as a sample loading control (Kobayashi et al., 1999). Antibody binding was detected by horseradish-peroxidase-conjugated goat anti-rabbit IgG and enhanced chemiluminescence development (Roche Laboratories) (Arp et al., 1996).

The test system of series [6] is cardiac allograft in presensitized rats. The settings on record: cyclosporin A 10 mg/kg/day i.m., sCR1 15 mg/kg single i.v. bolus; cited from earlier work.

Here are results for two compounds from patent publication US20100135992A1, “Prolongation of Survival of an Allograft by Inhibiting Complement Activity” (Alexion Pharmaceuticals, Inc., priority 2006, published 2010).

For the compound `C[C@@H](N)CCNCCCCNC(=O)OCC(=O)NCCCCCCNC(=N)N` [LF, LF15-0195], the nephrotoxicity result in series [1] (kidney allograft model development) is reported as “not associated with nephrotoxicity”. For the same compound, in series [1] (presensitized recipients, FIG. 11A), the “kidney graft survival (time to rejection)” value amounted to 6.0 ± 1.0 days. In series [2], the C3 immunoperoxidase staining is 3+, the C5 immunoperoxidase staining is 3+, the IgG immunoperoxidase staining was 3+ and the IgM immunoperoxidase staining is 1+. Besides, the Mac-1 immunoperoxidase staining in series [2] is recorded as 4+. The “terminal/serum complement activity (in vitro serum hemolytic assay)” value in series [3] is “no inhibitory effect”. In addition, in series [4] (kidney recipients at time of rejection, triple-therapy POD 100, FIG. 13A), the “circulating anti-donor IgG levels” value was “partially reduced”. Also, in series [4] (presensitized kidney recipients, FIG. 13B), the “predominant anti-donor IgG subclass” value is “IgG1, IgG2a and IgG3”. In addition, the “expression of Bcl-2 and Bcl-xl proteins in kidney grafts” value in series [5] is reported as “undetectable”.

Consider “sCR1: soluble complement receptor 1, binds complements C3b and C4b”, for which the “average time of graft rejection” value in series [6] is 44 days.
